The results in this text go back to patent US5316775A, “Method of treating hepatitis B infection” (Kremers-Urban Company, priority 1993, dated 1994).

Molecules are shown by their SMILES. Several values for one entry are separate records, joined by “and”; a condition that tells them apart may be missing. Identical values can stand only once. Like-named read-outs stand apart in the source and are kept apart here.

Common to all, as to format: cell-based
In one data set the test system is cell viability. The data set can be described thus: toxicity analysis: uptake of neutral red dye. The following applies: triplicate cultures, ± standard deviation. As to the method:
(§1) Toxicity analyses were performed in order to assess whether any observed antiviral effects are due to a general effect on cell viability. The method used was uptake of neutral red dye, a standard and widely used assay for cell viability in a variety of virus-host systems, including HSV and HIV.
(§2) Toxicity results were performed in 96-well flat bottomed tissue cultures plates. Cells for the toxicity analyses were cultured and treated with test compounds with the same schedule as used for the antiviral evaluations. Each compound was tested at four concentrations, each in triplicate cultures. Uptake of neutral red dye was used to determine the relative level of toxicity. The absorbance of internalized dye at […] (A510) was used for the quantitative analysis. Values are presented as a percentage of the average A510 values (±standard deviations) in nine separate cultures of untreated cells maintained on the same 96-well plate as the test compounds.

Data set [1] is described as follows: toxicity analysis: uptake of neutral red dye. To be noted: triplicate cultures, ± standard deviation, read-out: Neutral Red Dye Uptake at Indicated Drug Concentration. Here is the method: as §1, §2
In a further data set the test system is HBV. The data set can be described thus: antihepatitis viral activity: HBV virion DNA and intracellular HBV DNA in cultured cells (blot hybridization). As to the method:
Details of the assay methodology can be found in: Korba and Milman, Antiviral Res., 15:217 (1991) and Korba and Gerin, Antiviral Res. (1992) (in press). The antiviral evaluations were performed on two separate passages of cells. All wells, in all plates, were seeded at the same density and at the same time. Due to the inherent variations in the levels of both intracellular and extracellular HBV DNA, only depressions greater than 3.5-fold (for HBV virion DNA) or 3.0-fold (for HBV DNA replication intermediates) from the average levels for these HBV DNA forms in untreated cells are generally considered to be statistically significant [P<0.05]. The levels of integrated HBV DNA in each cellular DNA preparation (which remain constant on a per cell basis in these experiments) were used to calculate the levels of intracellular HBV DNA forms, thereby eliminating technical variations inherent in the blot hybridization assays.
Typical values for extracellular HBV virion DNA in untreated cells range from 50 to 100 pg/ml culture medium (average of approximately 76 pg/ml). Intracellular HBV DNA replication intermediates in untreated cells range from 50 to 100 pg/μg cell DNA) (average approximately 74 pg/μg cell DNA). In general, depressions in the levels of intracellular HBV DNA due to treatment with antiviral compounds are less pronounced, and occur more slowly, than depressions in the levels of HBV virion DNA).
In the following data table, data is shown concerning analysis of intracellular HBV DNA at 24 hours following the 9th day of treatment. DNA in each cell DNA preparation were used to calculate the levels of episomal 3.2 Kb HBV genomes (MONO.) and HBV DNA replication intermediates (RI). A "zero" indicates an undetectable level of HBV DNA, sensitivity cutoff was 0.1 pg/ml.

For the compound `Nc1ccn([C@H]2CC[C@@H](CO)O2)c(=O)n1` [2',3'-ddC, 2,3'-dideoxycytosine], the entries for the “Neutral Red Dye Uptake at Indicated Drug Concentration” value in the data set on cell viability (10 μg/ml) and in the data set with cell viability (30 μg/ml) were 102 ± 2 % of Control and 101 ± 3 % of Control, respectively. Besides, the viability in data set [1] (1000 μg/ml) turned out to be 12 ± 5%; in data set [1] (3000 μg/ml), 40 ± 4%. In the data set on HBV, the “effect on HBV DNA replication (in words)” value is on record as “significant depressions of HBV DNA replication”. Further, in the data set on HBV (10 μM, 24 hours following the 9th day of treatment), the “Intracellular HBV DNA MONO. (episomal 3.2 Kb HBV genomes)” value was 1.6 pg/μg CELL DNA and 1.8 pg/μg CELL DNA. For the same compound, the “HBV VIRION DNA DAY 0” value in the data set on HBV (10 μM, day 0) is 63 pg/ml CULTURE MEDIUM and 87 pg/ml CULTURE MEDIUM and 82 pg/ml CULTURE MEDIUM. For the same compound, the “HBV VIRION DNA DAY 3” value in the data set on HBV (10 μM, day 3) was 75 pg/ml CULTURE MEDIUM and 56 pg/ml CULTURE MEDIUM and 61 pg/ml CULTURE MEDIUM. Further, the “HBV VIRION DNA DAY 6” value in the data set on HBV (10 μM, day 6) is listed as 26 pg/ml CULTURE MEDIUM. In the data set on HBV (10 μM, day 9, zero = undetectable, cutoff 0.1 pg/ml), the “HBV VIRION DNA DAY 9” value was 2 pg/ml CULTURE MEDIUM and 1 pg/ml CULTURE MEDIUM. Besides, in the data set on HBV (Hepatitis B virus, read-out: depression of HBV RI relative to average levels in untreated cells), the inhibition at 9 µM is 90%.
